This note sets out measurements from ChEMBL document CHEMBL5506055, “Hit-to-Lead Optimization of the Natural Product Oridonin as Novel NLRP3 Inflammasome Inhibitors with Potent Anti-Inflammation Activity” (J Med Chem, 2024).

The target of assay [1] is NACHT, LRR and PYD domains-containing protein 3 (Mus musculus) (UniProt Q8R4B8). Briefly: Inhibition of NLRP3 inflammasome activation in LPS/ATP-induced C57BL/6 mouse BMDMs assessed as reduction in IL-1beta secretion at 100 nM preincubated with LPS for 4 hrs followed by compound addition for 30 mins and further stimulated with ATP for 30 mins by ELISA relative to control. The format is cell-based. Particulars: BMDM, time 1.0 hrs. Background: An ELISA detects its analyte on a solid surface through an enzyme-linked reagent.

Assay [2] has the same target. The experiment in a line: Inhibition of NLRP3 inflammasome activation in LPS/ATP-induced C57BL/6 mouse BMDMs assessed as reduction in IL-1beta secretion at 500 nM preincubated with LPS for 4 hrs followed by compound addition for 30 mins and further stimulated with ATP for 30 mins by ELISA relative to control. The format is cell-based. Particulars: BMDM, time 1.0 hrs.

The target is the same in assay [3]. The experiment in a line: Inhibition of NLRP3 inflammasome activation in LPS/ATP-induced C57BL/6 mouse BMDMs assessed as reduction in IL-1beta secretion at 200 nM preincubated with LPS for 4 hrs followed by compound addition for 30 mins and further stimulated with ATP for 30 mins by ELISA relative to control. In kind it is cell-based. Particulars: BMDM, time 1.0 hrs.

For assay [4], the target named is NACHT, LRR and PYD domains-containing protein 3 (Mus musculus, UniProt Q8R4B8). The experiment in a line: Inhibition of NLRP3 inflammasome activation in LPS/ATP-induced C57BL/6 mouse BMDMs assessed as reduction in IL-1beta secretion preincubated with LPS for 4 hrs followed by compound addition for 30 mins and further stimulated with ATP for 30 mins by ELISA. In kind it is cell-based, BMDM.
NACHT, LRR and PYD domains-containing protein 3, sequence (Q8R4B8 whole entry, the tested form may be a part): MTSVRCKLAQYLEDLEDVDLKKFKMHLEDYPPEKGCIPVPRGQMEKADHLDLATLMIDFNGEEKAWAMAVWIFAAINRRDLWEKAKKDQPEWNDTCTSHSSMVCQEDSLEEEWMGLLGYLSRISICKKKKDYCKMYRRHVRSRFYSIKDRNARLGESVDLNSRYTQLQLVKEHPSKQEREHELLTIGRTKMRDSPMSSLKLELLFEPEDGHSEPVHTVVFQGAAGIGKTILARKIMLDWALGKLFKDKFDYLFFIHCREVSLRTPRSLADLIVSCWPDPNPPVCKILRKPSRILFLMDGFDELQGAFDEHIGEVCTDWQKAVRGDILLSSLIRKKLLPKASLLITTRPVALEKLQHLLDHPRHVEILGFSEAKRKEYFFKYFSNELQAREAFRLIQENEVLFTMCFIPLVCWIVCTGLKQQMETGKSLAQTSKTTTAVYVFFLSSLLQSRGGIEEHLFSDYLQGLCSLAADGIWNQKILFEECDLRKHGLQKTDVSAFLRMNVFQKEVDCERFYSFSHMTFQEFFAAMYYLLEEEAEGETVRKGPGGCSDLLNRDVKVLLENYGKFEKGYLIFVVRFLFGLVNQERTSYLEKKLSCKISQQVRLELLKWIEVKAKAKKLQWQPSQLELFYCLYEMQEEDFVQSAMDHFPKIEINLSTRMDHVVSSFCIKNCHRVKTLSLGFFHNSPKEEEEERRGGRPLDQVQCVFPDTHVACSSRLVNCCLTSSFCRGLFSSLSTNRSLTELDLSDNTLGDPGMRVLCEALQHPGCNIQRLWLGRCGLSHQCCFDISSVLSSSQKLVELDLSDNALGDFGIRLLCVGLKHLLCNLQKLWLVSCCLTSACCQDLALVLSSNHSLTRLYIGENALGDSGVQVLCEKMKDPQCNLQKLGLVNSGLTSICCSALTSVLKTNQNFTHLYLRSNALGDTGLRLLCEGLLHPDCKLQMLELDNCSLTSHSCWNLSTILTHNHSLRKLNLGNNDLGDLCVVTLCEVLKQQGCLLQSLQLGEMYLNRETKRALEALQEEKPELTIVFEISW

NACHT, LRR and PYD domains-containing protein 3 (Mus musculus), sequence (Q8R4B8 whole entry, the tested form may be a part): as above

`C=C1C(=O)[C@]23[C@H](O)[C@H]1CC[C@H]2[C@]12C=CCC(C)(C)[C@H]1[C@H](O)[C@@]3(OCC)OC2`: the inhibition (commonly the percentage by which the read-out fell short of the control) in assay [1] is 31.3%; in assay [2] it was 66.1%; in assay [3], 46.5%.

Turning to `C=C1C(=O)[C@]23[C@H](O)[C@H]1CC[C@H]2[C@]12C=CCC(C)(C)[C@H]1[C@H](O)[C@@]3(OCc1ccc(C#N)cc1)OC2`, the inhibition in assay [1] was 38.8%; in assay [2], 89.2%; in assay [3], 64.7%.

For `C=C1C(=O)[C@]23[C@H](O)[C@H]1CC[C@H]2[C@]12C=CCC(C)(C)[C@H]1[C@H](O)[C@@]3(OCCC(=O)NC1CCOCC1)OC2`, the IC50 – broadly, the concentration needed to halve the response being measured – in assay [4] worked out at 292 nM. Besides, the values for the inhibition in assay [1], in assay [2] and in assay [3] were 18.5%, 66.2% and 36.4%, respectively.

As to `C=C1C(=O)[C@]23[C@H](O)[C@H]1CC[C@H]2[C@]12C=CCC(C)(C)[C@H]1[C@H](O)[C@@]3(OCCC(=O)NCC(C)C)OC2`, in assay [4], the IC50 came out at 137 nM. Further, the inhibition was 40.7% in assay [1], 79.1% in assay [2] and 59.9% in assay [3].

For `C=C1C(=O)[C@]23[C@H](O)[C@H]1CC[C@H]2[C@]12C=CCC(C)(C)[C@H]1[C@H](O)[C@@]3(OCCC(=O)N1CCN(C)CC1)OC2`, in assay [4], the IC50 was 98.5 nM. In addition, the inhibition came out at 45% in assay [1], 85.3% in assay [2] and 60.3% in assay [3].

With `C=C1C(=O)[C@]23[C@H](O)[C@H]1CC[C@H]2[C@]12C=CCC(C)(C)[C@H]1[C@H](O)[C@@]3(OCc1cocn1)OC2`, the IC50 in assay [4] worked out at 97.1 nM. Moreover, the inhibition is 44.2% in assay [1], 96.5% in assay [2] and 78.8% in assay [3].

Turning to `C=C1C(=O)[C@]23[C@H](O)[C@H]1CC[C@H]2[C@]12C=CCC(C)(C)[C@H]1[C@H](O)[C@@]3(OCCC(=O)NC1CCCC1)OC2`, the IC50 in assay [4] was 137 nM. The inhibition is 42.3% in assay [1], 84.7% in assay [2] and 56% in assay [3].

With `C=C1C(=O)[C@]23[C@H](O)[C@H]1CC[C@H]2[C@]12C=CCC(C)(C)[C@H]1[C@H](O)[C@@]3(OCCC(=O)NC1CC1)OC2`, in assay [4], the IC50 was determined as 242 nM. Also, the inhibition in assay [1] was determined as 33.3%; in assay [2] it was 65.1%; in assay [3], 38%.

Take `C=C1C(=O)[C@]23[C@H](O)[C@H]1CC[C@H]2[C@]12C=CCC(C)(C)[C@H]1[C@H](O)[C@@]3(OCCCc1ccc(Cl)cc1)OC2`: the inhibition in assay [1] came out at 7.3%; in assay [2], 65%; in assay [3], 47.8%.

Consider `C=C1C(=O)[C@]23[C@H](O)[C@H]1CC[C@H]2[C@@]12CO[C@]3(O)[C@@H](O)[C@@H]1C(C)(C)CC[C@@H]2O` [ORIDONIN], for which the IC50 in assay [4] was determined as 780 nM. The inhibition was 0.2% in assay [1], 41.2% in assay [2] and 14.3% in assay [3].

With `C=C1C(=O)[C@]23[C@H](O)[C@H]1CC[C@H]2[C@]12C=CCC(C)(C)[C@H]1[C@H](O)[C@@]3(OCc1ccc(Cl)cc1)OC2`, the results for the inhibition in assay [1], in assay [2] and in assay [3] were 40.5%, 75.5% and 63.3%, respectively.

As to `C=C1C(=O)[C@]23[C@H](O)[C@H]1CC[C@H]2[C@]12C=CCC(C)(C)[C@H]1[C@H](O)[C@@]3(OCCCc1ccccc1)OC2`, the inhibition worked out at 24% in assay [1], 66.6% in assay [2] and 48.4% in assay [3].

In the case of `C=C1C(=O)[C@]23[C@H](O)[C@H]1CC[C@H]2[C@]12C=CCC(C)(C)[C@H]1[C@H](O)[C@@]3(OCc1ccc3ccccc3c1)OC2`, the inhibition in assay [1] was determined as 35.2%; in assay [2] it was 85.7%; in assay [3], 47.5%.

Turning to `C=C1C(=O)[C@]23[C@H](O)[C@H]1CC[C@H]2[C@]12C=CCC(C)(C)[C@H]1[C@H](O)[C@@]3(OCCC(=O)NC1CCCCC1)OC2`, the IC50 in assay [4] came to 194 nM. Besides, the inhibition in assay [1] amounted to 36.5%; in assay [2], 74.1%; in assay [3] it was 40.6%.

Turning to `C=C1C(=O)[C@]23[C@H](O)[C@H]1CC[C@H]2[C@]12C=CCC(C)(C)[C@H]1[C@H](O)[C@@]3(OCCC(=O)NC(C)C)OC2`, in assay [4], the IC50 is 90.6 nM. For the same molecule, the inhibition is 56.2% in assay [1], 84.8% in assay [2] and 63.6% in assay [3].

`C=C1C(=O)[C@]23[C@H](O)[C@H]1CC[C@H]2[C@]12C=CCC(C)(C)[C@H]1[C@H](O)[C@@]3(O)OC2`: the inhibition worked out at 30.3% in assay [1], 64.3% in assay [2] and 45.3% in assay [3].

For `C=C1C(=O)[C@]23[C@H](O)[C@H]1CC[C@H]2[C@]12C=CCC(C)(C)[C@H]1[C@H](O)[C@@]3(OCCC(=O)N1CCCCC1)OC2`, the IC50 in assay [4] came out at 147 nM. The inhibition in assay [1] amounted to 43.7%; in assay [2] it was 82.1%; in assay [3], 52.4%.

Take `C=C1C(=O)[C@]23[C@H](OCc4ccccc4)[C@H]1CC[C@H]2[C@]12C=CCC(C)(C)[C@H]1[C@H](O)[C@@]3(O)OC2`: the inhibition in assay [1] amounted to 45.1%; in assay [2], 85.5%; in assay [3] it was 68%.

Take `C=C1C(=O)[C@]23[C@H](O)[C@H]1CC[C@H]2[C@]12C=CCC(C)(C)[C@H]1[C@H](O)C3(OCc1cccnc1)OC2` (single isomer, unassigned): the IC50 in assay [4] came out at 232 nM. The inhibition in assay [1] came to 24.5%; in assay [2], 68.4%; in assay [3], 44.5%.

On to `C=C1C(=O)[C@]23[C@H](O)[C@H]1CC[C@H]2[C@]12C=CCC(C)(C)[C@H]1[C@H](O)[C@@]3(OCCC(=O)NC)OC2`, for which the IC50 in assay [4] stood at 216 nM. Besides, the inhibition was 27.2% in assay [1], 76.7% in assay [2] and 43.1% in assay [3].

Turning to `C=C1C(=O)[C@]23[C@H](OCc4ccc(C#N)cc4)[C@H]1CC[C@H]2[C@]12C=CCC(C)(C)[C@H]1[C@H](O)[C@@]3(O)OC2`, the inhibition in assay [1] stood at 31.1%; in assay [2], 86.6%; in assay [3] it was 69.6%.

`C=CCNC(=O)CCO[C@@]12OC[C@]3(C=CCC(C)(C)[C@H]3[C@@H]1O)[C@@H]1CC[C@H]3C(=C)C(=O)[C@]12[C@@H]3O`: the IC50 in assay [4] came to 102 nM. Also, the inhibition in assay [1] amounted to 52.6%; in assay [2], 93.7%; in assay [3], 62.1%.

On to `C=C1C(=O)[C@]23[C@H](O)[C@H]1CC[C@H]2[C@]12C=CCC(C)(C)[C@H]1[C@H](O)[C@@]3(OCc1ccccc1)OC2`, for which the results for the inhibition in assay [1], in assay [2] and in assay [3] were 42.5%, 88.1% and 70.1%, respectively.

With `C=C1C(=O)[C@]23[C@H](OCc4ccc(Cl)cc4)[C@H]1CC[C@H]2[C@]12C=CCC(C)(C)[C@H]1[C@H](O)[C@@]3(O)OC2`, the values for the inhibition in assay [1], in assay [2] and in assay [3] were 44.8%, 72.4% and 58.7%, respectively.

On to `C=C1C(=O)[C@]23[C@H](O)[C@H]1CC[C@H]2[C@]12C=CCC(C)(C)[C@H]1[C@H](O)[C@@]3(OCCCCCc1ccccc1)OC2`, for which the inhibition in assay [1] worked out at 13.3%; in assay [2], 63.1%; in assay [3], 44.6%.

Turning to `C=C1C(=O)[C@]23[C@H](OCc4ccc5ccccc5c4)[C@H]1CC[C@H]2[C@]12C=CCC(C)(C)[C@H]1[C@H](O)[C@@]3(O)OC2`, the inhibition was 33.1% in assay [1], 71.4% in assay [2] and 50.2% in assay [3].
